Assay results as given in article PMC10115881, “Disrupting the α-synuclein-ESCRT interaction with a peptide inhibitor mitigates neurodegeneration in preclinical models of Parkinson’s disease” (Nature Communications, 2023).

Legend:
LAMP1 [1] = experiment: LAMP1 levels in HEK293 cells; format: cell-based, human; details: A53T a-syn overexpression
Description: Infected or transfected cells were scraped from six-well dishes and lysed with lysis buffer (50 mM Tris-HCl pH 7.4, 1% Nonidet P-40, 150 mM NaCl, 1 mM EDTA, 1× protease inhibitor mixture (Sigma)) for 30 min at 4 °C. The insoluble pellet was removed following a 10,000 rpm spin for 5 min at 4 °C. Lysates were analyzed by SDS-PAGE/immunoblot using 4–20% Mini-PROTEAN Tris-glycine gels (Bio-Rad), transferred to polyvinylidene fluoride (PVDF) membranes, and blocked in 5% milk containing PBS-Tween-20 (0.1%) for 1 h. PVDF membranes were then incubated with specified primary antibodies followed by incubation with horseradish peroxidase-conjugated secondary antibodies (anti-mouse HRP-linked, Cell Signaling, catalog #7076, 1:5000; anti-rabbit HRP-linked, Cell Signaling, catalog #7074, 1:5000) and detected using enhanced chemiluminescence (GE Healthcare). […]
(§1) After fixation, cells were permeabilized with 0.2% Triton-X-100 for 15 min, washed three times with PBS and then incubated with blocking solution (1% BSA, 22.52 mg/mL glycine, 0.1% Tween-20 in PBS or 0.4% saponin, 1% BSA, and 5% goat or donkey serum in PBS) for 1 h. […] Following another three washes with PBS, nuclei were counterstained with DAPI (ThermoFisher) and then coverslips were mounted on slides using Dako fluorescence mounting medium (Agilent) and sealed using clear nail varnish.

[2] = system: a-syn in iPSC-derived dopaminergic neurons; experiment: a-syn fluorescence in iPSC-derived dopaminergic neurons; format: cell-based, human; details: A53T a-syn iPSC-derived dopaminergic neurons
Description: A53T a-syn iCell Dopa neurons (catalog #R1109) and isogenic control iCell Dopa neurons (catalog #R1088) were purchased from Fujifilm Cellular Dynamics (Madison, WI, USA) and cultured as per the manufacturer’s instructions. Briefly, cells were plated in complete maintenance medium provided by the manufacturer on poly-L-ornithine/laminin coated μ plates (ibidi). Cells recovered from thawing for 24 h and then were transduced with AAV-Scramble1.3-RFP or AAV-PDpep1.3-RFP at MOI of 3000 for 48 h at which time media was completely changed. Cells were fixed using 4% PFA at 7 days post-plating.
Confocal images of immunofluorescent staining were acquired with a Zeiss LSM880 confocal microscope equipped with 405, 488, 555, and 639 nm laser lines. All images were taken within the linear range at constant gain and pinhole settings at optimal resolution settings determined by the software. […]
(§2) Confocal images of primary cortical neurons, iPSC-derived dopaminergic neurons, and LAMP1 staining within the SN were processed using Imaris software (Oxford instruments). […] Mean pixel intensity per GFP^+ cell (for experiments using GFP-tagged peptides) or RFP^+ cell (for experiments using RFP-tagged peptides) was calculated for a-syn or LAMP1 signal using the software’s surfaces module. […]

[3] = system: A53T a-syn-CHMP2B interaction; experiment: Co-immunoprecipitation: disruption of a-syn-CHMP2B interaction; format: cell-based; details: HEK293 co-immunoprecipitation
Description: HEK293T cells were co-transfected with Flag-tagged target protein, HA-tagged source protein, and GFP-tagged peptide or GFP. Cells were lysed 48 h after transfections with radioimmune precipitation assay buffer (50 mM Tris-HCl pH 7.4, 1% Nonidet P-40, 150 mM NaCl, 1 mM EDTA, 10 mM Na3VO4, 10 mM sodium pyrophosphate, 25 mM NaF, 1× protease inhibitor mixture (Sigma)) for 30 min at 4 °C and co-immunoprecipitated with Flag beads (Clontech). The resulting immunocomplexes were analyzed by immunoblot using the appropriate antibodies. Protein samples were separated using 4–20% Mini-PROTEAN Tris-glycine gels (Bio-Rad) transferred to PVDF membranes and blocked in 5% milk containing PBS-Tween-20 (0.1%) for 1 h. PVDF membranes were then incubated with specified primary antibodies followed by incubation with horseradish peroxidase-conjugated secondary antibodies (anti-mouse HRP-linked, Cell Signaling, catalog #7076, 1:5000; anti-rabbit HRP-linked, Cell Signaling, catalog #7074, 1:5000) and detected using enhanced chemiluminescence (GE Healthcare). HA antibodies were obtained from Santa Cruz (catalog #7392, 1:2000), GFP antibodies were purchased from Abcam (catalog #ab290, 1:2000), and Flag antibodies were purchased from Sigma (catalog #A8592, 1:1000).

Rab7 = Rab7 fluorescence in rat cortical neurons; format: cell-based; details: A53T a-syn
Description: (§3) Pregnant rats (E17) of the Sprague-Dawley strain were purchased from Envigo. Embryos were surgically removed from the mothers and cortices dissected in Hanks Balanced salt solution (Gibco). The meninges were removed, and cells were dissociated using a papain dissociation system (Worthington) before being resuspended in Neurobasal medium A supplemented with antibiotic-antimycotic solution (Gibco), L-glutamine substitute (GlutaMAX™; Gibco) and factor B27 (Gibco). […]
as §1, §2

LAMP1 [4] = experiment: LAMP1 fluorescence in rat cortical neurons; format: cell-based; details: A53T a-syn
Description: as §3, §1, §2

## DEEIERQLKALG [PDpep1.3]
LAMP1 [1]
  Effect on LAMP1 levels, HEK293: LAMP1 levels were restored
[2]
  Effect on a-syn levels, iPSC neurons: returned levels of a-syn, including oligomeric a-syn, as well as LAMP1 levels to those of isogenic controls
[3]
  Effect on a-syn-CHMP2B interaction: disrupted this a-syn-CHMP2B interaction
Rab7
  Effect on Rab7: normalized
LAMP1 [4]
  Effect on LAMP1, neurons: restored LAMP1 levels
